Test results from US20190177279A1, “CARBOXYLIC ACID AROMATIC 1,2-CYCLOPROPYLAMIDES” (Bayer Pharma Aktiengesellschaft, priority 2017, published 2019).
Like-named read-outs stand apart in the source and are kept apart here.

Biological target: T1, human B1 receptor (Homo sapiens, UniProt P46663)
T1 construct: host or cells: CHO-K1
T1 sequence (P46663 1-353): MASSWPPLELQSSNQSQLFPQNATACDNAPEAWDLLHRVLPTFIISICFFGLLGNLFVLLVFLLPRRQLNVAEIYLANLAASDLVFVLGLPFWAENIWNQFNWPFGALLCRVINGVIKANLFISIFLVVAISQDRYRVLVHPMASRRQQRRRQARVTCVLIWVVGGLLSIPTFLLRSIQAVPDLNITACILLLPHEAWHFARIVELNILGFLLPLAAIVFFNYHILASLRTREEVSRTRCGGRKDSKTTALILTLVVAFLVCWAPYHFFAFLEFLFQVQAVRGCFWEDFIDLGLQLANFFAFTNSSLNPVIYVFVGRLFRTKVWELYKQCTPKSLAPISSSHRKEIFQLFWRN
Experiment: Calcium flux assay (FLIPR) with recombinant CHO-K1 cells expressing human B1 receptor
Assay type: cell-based
Conditions: agonist Lys-(Des-Arg)-Bradykinin
Procedure: The potency to inhibit the Bradykinin B1 receptors was determined for the example compounds of this invention in a cell-based fluorescent calcium-mobilisation assay. The assay measures the ability of example compounds to inhibit Bradykinin B1 receptor agonist-induced increase of intracellular free Ca^2+ in the cell line expressing B1 receptor. Specifically, calcium indicator—loaded cells are pre-incubated in the absence or presence of different concentrations of example compounds followed by the stimulation with a selective B1 receptor agonist peptide. The change of the intracellular Ca^2+ concentration is monitored with a fluorescent plate reader FLIPR (Molecular Devices).
Calcium flux Assay (FLIPR) with recombinant cells for Bradykinin B1 receptor antagonist, either in the presence (hB1 IC50) or absence (hB1 free IC50) of 0.1% BSA in assay buffer
CHO-K1 cell line expressing human B1 receptor was purchased from Euroscreen (Gosselies, Belgium, with reference name hB1-D1). The cells were grown in Nutrient Mixture Ham's F12 (Sigma) containing 10% Foetal bovine serum (Sigma) and 400 μg/mL G418 (Sigma), 5 μg/mL puromycin (Sigma).
For the calcium flux assay, 80% confluent cells were detached from the culture vessels with Versene (Gibco), and seeded into 384-well plates (Cell binding Surface; Corning, N.Y.; #3683) at a density of 15,000 cells per well. Cells were seeded in a volume of 50 μL in medium without antibiotics and incubated overnight in a humidified atmosphere with 5% CO2 at 37° C. […] The calcium indicator loaded cells were incubated at 37° C. for 2 hrs. Extracellular dye was then removed and each well was filled with 45 μL of assay buffer. Cell plates were kept in dark until used. Example compounds were assayed at 8 concentrations in triplicate. Serial 10-fold dilutions in 100% DMSO were made at a 100-times higher concentration than the final concentration, and then diluted 1:10 in assay buffer. 5 μL of each diluted compound was added to the well of cell plates (yielding final concentration with 1% DMSO), and incubated for 30 min at 28° C. before the addition of B1 receptor agonist on the FLIPR instrument.
Agonist plates contained the agonist Lys-(Des-Arg)-Bradykinin (Bachem, Brackley) at 3.5×EC90 in assay buffer with 1% DMSO. The addition of agonist 20 μl per well to the assay plate was carried out on the FLIPR instrument while continuously monitoring Ca^2+-dependent fluorescence at 538 nm. A peptide antagonist Lys-(Des-Arg-Leu)-Bradykinin (Bachem, Brackley) at 20 µM was used to determine the full inhibition as control.
Peak fluorescence was used to determine the response to agonist obtained at each concentration of example compound by the following equation:
% Response=100*(RFU(example compound)−RFU(control)/(RFU(DMSO)−RFU(control)) • Control=full inhibition by the peptide antagonist Lys-(Des-Arg-Leu)-Bradykinin at 20 μM
The response values were plotted against the logarithm of the compound concentrations. The compounds were tested in triplicates per plate and mean values were plotted in Excel XLfit to determine IC50 values, percentage of maximal inhibition and the Hill slopes.

With `O=C(O)c1cc(NC(=O)C2CC2c2ccc(Cl)cc2)cc(F)c1-c1cnn(C2CCC2)c1` (racemic) [Example 2, 5-({[2-(4-chlorophenyl)cyclopropyl]carbonyl}amino)-2-(1-cyclobutyl-1H-pyrazol-4-yl)-3-fluorobenzoic acid] the IC50 (absence of 0.1% BSA in assay buffer, read-out: hB1 free IC50) was 22 nM and the IC50 (presence of 0.1% BSA in assay buffer, read-out: hB1 IC50) was 78 nM.
